Experimental data published in patent US12291529B2, “Heterocyclic GLP-1 agonists” (Gasherbrum Bio, Inc., priority 2023, dated 2025).
pEC50: −log10 of the molar value.

What follows are molecules tested against GLP-1 Receptor (Homo sapiens, UniProt P43220) (assay: GLP-1R agonist cAMP stimulation assay (HEK293/GLP1R/CRE-LUC cells, Cisbio cAMP dynamic 2 kit)). Conditions: Table 3, HEK293/GLP1R/CRE-LUC cells, 30 min.
Format: cell-based
Protocol: Activation of GLP-1 receptor is known to stimulate cyclic AMP (cAMP) production in cells which indicates primary coupling to the G as subunit of the G protein heterotrimeric complex.
To optimize functional activity directed toward G as coupling, a HEK293/CRE-Luc cell line developed by HDB stably expressing the GLP-1 Receptor was used. 200× concentration of compound working solutions were prepared (Agilent Technologies Bravo) with ½ log serial dilution in 384-well Echo LDV plate (Labcyte, CatOLP-0200). 50 nL/well 200× concentration of compound working solutions were moved to 384-well white low volume plate (Greiner, Cat4784075) using Labcyte ECH0550.1×10^5 cells/mL HEK293/GLP1R/CRE-LUC (HD Biosciences) cell suspensions prepared with assay buffer (DPBS containing 0.5 mM IBMX (Sigma, Cat15879) and 0.10 BSA (GENVIEW, Cat4FA016-100g)), 10 uL cell suspensions were added to each well of previous generated assay plate which already contains 50 n^1 compound at 200 xconcentration using ThermioFisher Multidrop Combi (1000 cells/well). Seal the plate and incubate at 37 with […] for 30 m.
After incubation the cAMP assay signal was generated using cAMP dynamic 2 Kit (Cisbio). 5 μL cAMP-d2 working solution was added to each well, followed with 5 L Anti-cAMP antibody-cryptate working solution added to each well using ThermoFisher Multidrop Combi. Incubate at room temperature for 1 hour protected from light. Read the fluorescence at 665 and 615 nm with Reader PerkinElmer EnVision. % oActivity=100%×(mean RLU of test sample−mean RLU of vehicle control)/(mean RLU of MAX control−mean RLU of vehicle control)

Chain of GLP-1 Receptor (P43220 24-463, species assumed): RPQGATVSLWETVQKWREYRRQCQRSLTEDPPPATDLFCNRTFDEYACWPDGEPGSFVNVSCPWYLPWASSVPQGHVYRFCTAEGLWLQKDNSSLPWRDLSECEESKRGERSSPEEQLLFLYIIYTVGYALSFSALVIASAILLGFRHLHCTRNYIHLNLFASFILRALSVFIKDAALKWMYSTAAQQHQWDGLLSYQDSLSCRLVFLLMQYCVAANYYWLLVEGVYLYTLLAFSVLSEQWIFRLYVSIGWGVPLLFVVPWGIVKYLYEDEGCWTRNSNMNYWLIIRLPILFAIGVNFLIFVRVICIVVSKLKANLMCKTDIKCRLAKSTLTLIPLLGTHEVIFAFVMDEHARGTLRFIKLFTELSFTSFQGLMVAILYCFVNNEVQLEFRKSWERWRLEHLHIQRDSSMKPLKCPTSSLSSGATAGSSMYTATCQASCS

SMILES	pEC50
Cc1cc(-n2nc3c(c2-n2ccn(-c4ccc(CS(C)(=N)=O)cc4)c2=O)[C@H](C)N(C(=O)c2cc4cc(C5CCOCC5)ccc4n2[C@@]2(c4noc(=O)[nH]4)C[C@@H]2C)CC3)cc(C)c1F (stereo partly drawn) [Compound 111, 3-[(1S,2S)-1-(2-{[(4S)-3-[3-(4-{[azanylidene(methyl)(oxo)-λ^6-sulfanyl]methyl}phenyl)-2-oxoimidazol-1-yl]-2-(4-fluoro-3,5-dimethylphenyl)-4-methyl-4,5,6,7-tetrahydropyrazolo[4,3-c]pyridin-5-yl]carbonyl}-5-(3,4,5,6-tetrahydro-2H-pyran-4-yl)indol-1-yl)-2-methylcyclopropyl]-4H,5H-1,2,4-oxadiazol-5-one]	10.85
Cc1cc(-n2nc3c(c2-n2ccn(-c4ccc(S(C)(=N)=O)nc4)c2=O)[C@H](C)N(C(=O)c2cc4cc(C5CCOCC5)ccc4n2[C@@]2(c4noc(=O)[nH]4)C[C@@H]2C)CC3)cc(C)c1F (stereo partly drawn) [Compound 102, 3-[(1S,2S)-1-(2-{[(4S)-3-(3-{6-[azanylidene(methyl)(oxo)-λ^6-sulfanyl]pyridin-3-yl}-2-oxoimidazol-1-yl)-2-(4-fluoro-3,5-dimethylphenyl)-4-methyl-4,5,6,7-tetrahydropyrazolo[4,3-c]pyridin-5-yl]carbonyl}-5-(3,4,5,6-tetrahydro-2H-pyran-4-yl)indol-1-yl)-2-methylcyclopropyl]-4H,5H-1,2,4-oxadiazol-5-one]	9.77
CCS(=N)(=O)c1ccc(-n2ccn(-c3c4c(nn3-c3cc(C)c(F)c(C)c3)CCN(C(=O)c3cc5cc(C6CCOCC6)ccc5n3[C@@]3(c5noc(=O)[nH]5)C[C@@H]3C)[C@H]4C)c2=O)c(F)c1 (single isomer, unassigned) [Compound 138]	12.00
Cc1cc(-n2nc3c(c2-n2ccn(-c4ccc(S(C)(=N)=O)cc4)c2=O)[C@H](C)N(C(=O)c2cc4cc(C5CCOCC5)ccc4n2[C@@]2(c4noc(=O)[nH]4)C[C@@H]2C)CC3)cc(C)c1F (single isomer, unassigned) [Compound 114]	10.77
COc1cc(-n2ccn(-c3c4c(nn3-c3cc(C)c(F)c(C)c3)CCN(C(=O)c3cc5cc(C6CCOCC6)ccc5n3[C@@]3(c5noc(=O)[nH]5)C[C@@H]3C)[C@H]4C)c2=O)ccc1S(C)(=N)=O (stereo partly drawn) [Compound 123, 3-[(1S,2S)-1-(2-{[(S)-2-(4-fluoro-3,5-xylyl)-3-{3-[4-(iminomethyloxothio)-3-methoxyphenyl]-2-oxo-1,3-dihydro-1-imidazolyl}-4-methyl-4,5,6,7-tetrahydro-2H-1,2,5-triazainden-5-yl]carbonyl}-5-(tetrahydro-2H-pyran-4-yl)-1-indolyl)-2-methylcyclopropyl]-1,2,4-oxadiazol-5(4H)-one]	10.15
CCS(=N)(=O)c1ccc(-n2ccn(-c3c4c(nn3-c3cc(C)c(F)c(C)c3)CCN(C(=O)c3cc5cc(C6CCOCC6)ccc5n3[C@@]3(c5noc(=O)[nH]5)C[C@@H]3C)[C@H]4C)c2=O)cc1 (single isomer, unassigned) [Compound 116]	10.31
Cc1cc(-n2nc3c(c2-n2ccn(-c4ccc(S5(=O)=NCCC5)cc4)c2=O)[C@H](C)N(C(=O)c2cc4cc(C5CCOCC5)ccc4n2C2(c4nnn[nH]4)CC2)CC3)cc(C)c1F (single isomer, unassigned) [Compound 172]	10.43
CN=S(C)(=O)c1ccc(-n2ccn(-c3c4c(nn3-c3cc(C)c(F)c(C)c3)CCN(C(=O)c3cc5cc(C6CCOCC6)ccc5n3[C@@]3(c5noc(=O)[nH]5)C[C@@H]3C)[C@H]4C)c2=O)cc1 (single isomer, unassigned) [Compound 112]	10.24
Cc1cc(-n2nc3c(c2-n2ccn(-c4ccc(S(=N)(=O)C5CCC5)cc4F)c2=O)[C@H](C)N(C(=O)c2cc4cc(C5CCOCC5)ccc4n2[C@@]2(c4noc(=O)[nH]4)C[C@@H]2C)CC3)cc(C)c1F (single isomer, unassigned) [Compound 169]	10.15
CNc1cc(-n2ccn(-c3c4c(nn3-c3cc(C)c(F)c(C)c3)CCN(C(=O)c3cc5cc(C6CCOCC6)ccc5n3[C@@]3(c5nc(=O)o[nH]5)C[C@@H]3C)[C@H]4C)c2=O)ccc1S(C)(=N)=O (stereo partly drawn) [Compound 105, 3-[(1S,2S)-1-(2-{[(S)-2-(4-fluoro-3,5-xylyl)-3-{3-[4-(iminomethyloxothio)-3-(methylamino)phenyl]-2-oxo-1,3-dihydro-1-imidazolyl}-4-methyl-4,5,6,7-tetrahydro-2H-1,2,5-triazainden-5-yl]carbonyl}-5-(tetrahydro-2H-pyran-4-yl)-1-indolyl)-2-methylcyclopropyl]-1,2,4-oxadiazol-5(4H)-one]	11.05
CCS(=O)(=NC)c1ccc(-n2ccn(-c3c4c(nn3-c3cc(C)c(F)c(C)c3)CCN(C(=O)c3cc5cc(C6CCOCC6)ccc5n3CC3CCCO3)[C@H]4C)c2=O)cc1 (stereo partly shown) [Compound 163]	7.70

Further lines, results first:

pEC50	SMILES
11.33	Cc1cc(-n2nc3c(c2-n2ccn(-c4ccc5c(c4F)CCN=S5(C)=O)c2=O)[C@H](C)N(C(=O)c2cc4cc([C@H]5CCOC(C)(C)C5)ccc4n2[C@@]2(c4noc(=O)[nH]4)C[C@@H]2C)CC3)cc(C)c1F (single isomer, unassigned) [Compound 186]
11.00	Cc1cc(-n2nc3c(c2-n2ccn(-c4ccc(S(=N)(=O)CC5CC5)cc4F)c2=O)[C@H](C)N(C(=O)c2cc4cc([C@H]5CCOC(C)(C)C5)ccc4n2[C@@]2(c4noc(=O)[nH]4)C[C@@H]2C)CC3)cc(C)c1F (single isomer, unassigned) [Compound 184]
10.24	CN=S1(=O)CCC(Oc2ccc(-n3ccn(-c4c5c(nn4-c4cc(C)c(F)c(C)c4)CCN(C(=O)c4cc6cc(C7CCOCC7)ccc6n4[C@@]4(c6noc(=O)[nH]6)C[C@@H]4C)[C@H]5C)c3=O)cc2C(F)F)CC1 (single isomer, unassigned) [Compound 235]
10.32	Cc1cc(-n2nc3c(c2-n2ccn(-c4ccc5c(c4)C=CS(C)(=O)=N5)c2=O)[C@H](C)N(C(=O)c2cc4cc([C@H]5CCOC(C)(C)C5)ccc4n2[C@@]2(c4noc(=O)[nH]4)C[C@@H]2C)CC3)cc(C)c1F (single isomer, unassigned) [Compound 230]
10.70	Cc1cc(-n2nc3c(c2-n2ccn(-c4ccc5c(c4F)CN=S5(=O)C4CC4)c2=O)[C@H](C)N(C(=O)c2cc4cc([C@H]5CCOC(C)(C)C5)ccc4n2[C@@]2(c4noc(=O)[nH]4)C[C@@H]2C)CC3)cc(C)c1F (single isomer, unassigned) [Compound 192]
10.41	CN=S(=O)(c1ccc(-n2ccn(-c3c4c(nn3-c3cc(C)c(F)c(C)c3)CCN(C(=O)c3cc5cc([C@H]6CCOC(C)(C)C6)ccc5n3[C@@]3(c5noc(=O)[nH]5)C[C@@H]3C)[C@H]4C)c2=O)c(Cl)c1)C1CC1 (single isomer, unassigned) [Compound 204]
11.00	Cc1cc(-n2nc3c(c2-n2ccn(-c4cc5c(cc4F)S(C)(=O)=NC5)c2=O)[C@H](C)N(C(=O)c2cc4cc([C@H]5CCOC(C)(C)C5)ccc4n2[C@@]2(c4noc(=O)[nH]4)C[C@@H]2C)CC3)cc(C)c1F (single isomer, unassigned) [Compound 200]
10.85	Cc1cc(-n2nc3c(c2-n2ccn(-c4ccc5c(c4)C=CS(C)(=O)=N5)c2=O)[C@H](C)N(C(=O)c2cc4cc([C@H]5CCOC(C)(C)C5)ccc4n2[C@@]2(c4noc(=O)[nH]4)C[C@@H]2C)CC3)cc(C)c1F (single isomer, unassigned) [Compound 231]
